Laboratory results: patent publication US8969395B2, “Triterpenoid derivatives useful as antiproliferative agents” (Universidade de Coimbra, priority 2009, dated 2015)

Legend:
[1] = tested on: HeLa (human cervical adenocarcinoma); experiment: Cytotoxic activity, MTT assay, HeLa; format: cell-based; conditions: 72 h, mean ±SD
HeLa cells = experiment: Apoptosis, Annexin V-FITC/PI FACS, HeLa; format: cell-based, human; conditions: at IC50, 72 h, FIG. 8
Method: (§1) Assessment of apoptosis was performed 72 h after treatment with derivatives at their IC50. Briefly, the same number of HepG2, HeLa, Jurkat and Chang liver cells as in the cell cycle assay were treated with compounds 20, 44, 46 and betulinic acid 2, as described above. Cells were collected washed once in ice-sold binding buffer (10 mM HEPES/NaOH, pH 7.4, 140 mM NaCl, 2.5 mM CaCl2) and ressuspended in the same buffer (95 μl) at a maximum, of 8×10^5 cells/ml. Annexin V-FITC conjugate (1 μg/ml) was added and incubated for 30 min at room temperature in darkness. Just before FACS analysis, cells were stained with 20 μl of […]. Approximately 1×10^4 cells were analysed for each histogram and experiments were performed three times with triplicates per experiment. FACS analysis using Annexin V-FITC staining and PI accumulation was used to differentiate early apoptotic cells (Annexin V^+ and PI^−) from necrotic or late apoptotic cells (Annexin V^+ and PI^+). […] In comparison with untreated controls, compound 44 treatment of HepG2 cells generated apoptosis in 53% of cells (42% of early apoptosis and 11% of late apoptosis), compound 46 generated apoptosis in 38% of cells (28% of early apoptosis plus 10% late apoptosis) and compound 20 induced apoptosis in 29% of cells (22% of early apoptosis plus 7% late apoptosis) (FIG. 8).

[2] = tested on: Chang liver (human normal liver cells); experiment: Cytotoxic activity against non-tumoral cell line, MTT assay; format: cell-based; conditions: 72 h, mean ±SD
Method: The cytotoxic of compounds of formulas (I) and (II) 14-50 was assessed towards human cancer (HepG2, HeLa and Jurkat) cell lines (Table 3 below). Compounds presented on Table 4 were also tested against a non-tumoral liver cell line (Chang liver). The cell viability of HeLa, HepG2 and Chang liver cells was determined by the MTT assay. Briefly, exponentially growing cells were plated in 96-well plates at a density of 1×10^3, 8×10^3 and 5×10^3 cells/well respectively and incubated for 24 h before treatment. The grown medium was replaced with one contained the tested compounds dissolved in DMSO (final DMSO concentration <0.1%) at different concentrations, in triplicate wells, and cells were incubated for 72 h. After incubation with the compounds, the medium was removed and MTT solution (0.5 mg/ml, 100 μl) was added to each well and the plates were incubated again for 1 h. DMSO (100 μl) was then added to dissolve the formazan crystals and the plates were immediately read at 550 nm on an ELISA plate reader (Tecan Sunrise MR20-301, TECAN, Austria). For the Jurkat cells, the cell viability was determined by the XTT assay. Briefly, exponentially growing cells were plated in 96-well plates at a density of 5.5×10^3 cells/well, treated with different concentrations of compounds in triplicate and incubated for 72 h. After incubation with the compounds the XTT labeling mixture (100 μl) were added to each of the wells and after a 4 h incubation period the plates were read at 450 nm on an ELISA plate reader. […] Known for its cytotoxic activity, betulinic acid 2 was used as a positive control in this experimentation. […] All the IC50 results represent an average of a minimum of three experiments and were expressed as means±standard deviation (SD).

HepG2 cells [3] = experiment: Apoptosis, Annexin V-FITC/PI FACS, HepG2; format: cell-based, human; conditions: HepG2, at IC50, 72 h; for effectiveness at inducing apoptosis: FIG. 8; for apoptosis (% of cells, early plus late): in comparison with untreated controls
Method: as §1

Jurkat cells = experiment: Cell cycle analysis by flow cytometry (FACS, PI), Jurkat; format: cell-based, human; conditions: compound at its IC50, 72 h
Method: (§2) The effects on the cell cycle of some of these compounds were assessed through flow cytometry by using a fluorescence-activated cell sorter (FACS) (Table 5 below). For this assay 2.3×10^5 HepG2 cells/well, 2.9×10^4 HeLa cells/well, 1.6×10^5 Jurkat cells/well and 1.4×10^5 Chang liver cells/well were plated in 6 well plates with 2 ml of medium. The number of cells was determined by the relationship number of cells/area wells, considering the number of cells that were cultured in 96-well plates. […] Chang liver cells were incubated with compounds 20, […] at concentrations corresponding to the IC80 determined for HepG2 at 72 h. Following 72 h. of incubation, cells were harvested by mild trypsinization, collected by centrifugation and stained in ice-cold Tris-buffered saline (TBS), containing 1 mg/ml PI, 10 mg/ml RNAse free of DNAase and 0.1% Igepal CA-630 for 1 h at 4° C. FACS analysis was carried out at 488 nm in an Epics XL flow cytometer (Coulter Corporation, Hialeah, Fla.). Data from 8×10^3 cells were collected and analyzed using Multicycle program (Phoenix Flow Systems, San Diego, Calif.). All experiments were performed three times with three replicates per experiment. […] To explore the selectivity of the effect on tumor cells, we also tested compounds 20, 44 and 46 in a non-malignant cell line. Chang liver cells were treated with the compounds at the IC80 values determined for HepG2 after 72 h of incubation and no effect was observed, indicating a selective effect of these agents (Table 5 below).

HepG2 cells [4] = experiment: Cell cycle analysis by flow cytometry (FACS, PI), HepG2; format: cell-based, human; conditions: for Phase of cell cycle (% of cells) G0/G1 / Phase of cell cycle (% of cells) G2/M / Phase of cell cycle (% of cells) S: HepG2, compound at its IC50, 72 h; for decrease in the percentage of cells in the G0/G1 phase / increase in the population in S phase: HepG2, with respect to untreated cells, at IC50, 72 h
Method: as §2

Compound | IC50 [1] [µM] | effectiveness at inducing apoptosis (HeLa cells) | IC50 [2] [µM] | early apoptosis (Annexin V+ and PI-) (HepG2 cells [3]) [%] | late apoptosis (Annexin V+ and PI+) (HepG2 cells [3]) [%] | effectiveness at inducing apoptosis (HepG2 cells [3]) | apoptosis (% of cells, early plus late) (HepG2 cells [3]) | Phase of cell cycle (% of cells) G0/G1 (Jurkat cells) | Phase of cell cycle (% of cells) G2/M (Jurkat cells) | Phase of cell cycle (% of cells) S (Jurkat cells) | Phase of cell cycle (% of cells) G0/G1 (HepG2 cells [4]) | Phase of cell cycle (% of cells) G2/M (HepG2 cells [4]) | Phase of cell cycle (% of cells) S (HepG2 cells [4]) | decrease in the percentage of cells in the G0/G1 phase (HepG2 cells [4]) [%] | increase in the population in S phase (HepG2 cells [4]) [%]
C=C(C)[C@@H]1CC[C@]2(CO)CC[C@]3(C)[C@H](CC[C@@H]4[C@@]5(C)CC[C@H](OC(=O)n6ccnc6)C(C)(C)[C@@H]5CC[C@]43C)[C@@H]12 [Compound 20, 28-hydroxy-lup-20(29)-en-3β-yl-1H-imidazole-1-carboxylate] | 3 ± 0.2 | extremely effective | 60.7 ± 3.8 | 22 | 7 | extremely effective | 29 % of cells | 48.6 ± 4.4 % of cells | 15.8 ± 2.1 % of cells | 35.6 ± 3.1 % of cells | 49.4 ± 1.2 % of cells | 14.5 ± 0.8 % of cells | 36.1 ± 0.8 % of cells | 12 | 17
C=C(C)[C@@H]1CC[C@]2(C(=O)n3ccnc3)CC[C@]3(C)[C@H](CC[C@@H]4[C@@]5(C)CCC(=O)C(C)(C)[C@@H]5CC[C@]43C)[C@@H]12 [Compound 44, 28-(1H-imidazol-1-yl)-lup-20(29)-en-3,28-dione] | 2 ± 0.3 | most effective | 48.8 ± 2.8 | 42 | 11 | most effective | 53 % of cells | 52.7 ± 0.5 % of cells | 20.8 ± 1.1 % of cells | 26.6 ± 0.9 % of cells | 45.6 ± 2.1 % of cells | 14.9 ± 1.4 % of cells | 39.6 ± 3.6 % of cells | 16 | 20
C=C(C)[C@@H]1CC[C@]2(C(=O)n3ccnc3)CC[C@]3(C)[C@H](CC[C@@H]4[C@@]5(C)C=CC(=O)C(C)(C)[C@@H]5CC[C@]43C)[C@@H]12 [Compound 46, 28-(1H-imidazol-1-yl)-lup-1,20 (29)-dien-3,28-dione] | 3 ± 0.2 | extremely effective | 55.9 ± 4.6 | 28 | 10 | extremely effective | 38 % of cells | 49.6 ± 2.6 % of cells | 20.7 ± 2.4 % of cells | 29.8 ± 0.8 % of cells | 54.7 ± 1.5 % of cells | 14.3 ± 1.0 % of cells | 30.7 ± 0.6 % of cells | 7 | 12
